Consider eleven compounds from ChEMBL document CHEMBL1201862, “PubChem BioAssay data set” (2004).

Structures are written as SMILES.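 Where inhibition never reached the appropriate level, the endpoint shown equals the highest concentration tested. Otherwise, values were interpolated linearly from a five-concentration, 48-hour dose response in 96-well plates. At the GI50, growth is halved.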 Calls of active or inactive are those of the source. Rule as the data show it: active = GI50 up to about 1.1 µM and inactive = higher.

Test systems include SK-MEL-2; SF-539; SNB-19; HT-29; TK-10; OVCAR-3; NCI-H226; IGROV-1; OVCAR-8; OVCAR-4; HOP-62; K562; OVCAR-5; M19-MEL; NCI-H23; HCT-15; UACC-257; MDA-MB-231; Hs-578T; PC-3.
Holding throughout (test): inhibition of tumour cell growth, NCI panel, 48 h

With `CN(C)CCn1cnc2ncccc2c1=O`, the GI50 with SK-MEL-2, with SF-539, in the experiment with SNB-19, in the experiment with HT-29, in the experiment with TK-10 and in the experiment on OVCAR-3 was > 100 µM (inactive) each time. Further, the GI50 in the experiment on NCI-H226, with IGROV-1, with OVCAR-8, with OVCAR-4, in the experiment with HOP-62 and with K562 was > 100 µM (inactive) in each case. Besides, the GI50 in the experiment with OVCAR-5, in the experiment on M19-MEL and in the experiment on NCI-H23 was > 100 µM (inactive) in each case.

For `CC(=O)Oc1ccc2c(c1)C(=O)c1nc(C)c(C)nc1C2=O`, the GI50 is 39.6 µM (inactive) in the experiment on SK-MEL-2; 25.8 µM (inactive) in the experiment on SF-539; > 52.4 µM (inactive) with SNB-19; 31.8 µM (inactive) in the experiment on HT-29; > 100 µM (inactive) in the experiment on TK-10; 21.4 µM (inactive) in the experiment on OVCAR-3. Further, the GI50 in the experiment with NCI-H226 was 38.7 µM (inactive); in the experiment on IGROV-1, 46.8 µM (inactive); in the experiment with OVCAR-8, 45.1 µM (inactive); in the experiment on OVCAR-4, 46.3 µM (inactive); in the experiment with HOP-62, 23.7 µM (inactive); in the experiment on K562, 47 µM (inactive). The GI50 in the experiment with HCT-15 is 40.9 µM; in the experiment on UACC-257, 36.6 µM (inactive); with OVCAR-5, > 100 µM (inactive); with M19-MEL it was 4.61 µM (inactive); in the experiment with NCI-H23, 43.4 µM (inactive).

Regarding `O=C(NC1CCCC1=O)c1ccccc1` (configuration not stated), the GI50 in the experiment with SK-MEL-2, with SF-539, in the experiment with SNB-19, in the experiment with HT-29, in the experiment on TK-10 and with OVCAR-3 was > 100 µM (inactive) in each case. In addition, the GI50 in the experiment with NCI-H226 is 98.9 µM (inactive); in the experiment on IGROV-1 it was > 100 µM (inactive); in the experiment on OVCAR-8, > 100 µM (inactive); with OVCAR-4 it was > 100 µM (inactive); in the experiment with HOP-62 it was > 100 µM (inactive); in the experiment with K562, > 100 µM (inactive). In addition, the GI50 in the experiment on UACC-257, in the experiment on OVCAR-5, in the experiment on M19-MEL and with NCI-H23 was > 100 µM (inactive) throughout.

For the compound `CC(C)=CC(=O)Cc1nc2ccc([N+](=O)[O-])cc2[nH]c1=O`, the GI50 in the experiment with SK-MEL-2, in the experiment with SF-539, in the experiment on SNB-19, with HT-29, with TK-10 and in the experiment on OVCAR-3 was > 100 µM (inactive) in each case. Moreover, the GI50 in the experiment on NCI-H226 was > 100 µM (inactive); with IGROV-1, > 100 µM (inactive); with OVCAR-8, > 100 µM (inactive); with OVCAR-4 it was > 100 µM (inactive); in the experiment with HOP-62 it was > 100 µM (inactive); in the experiment on K562, 83.8 µM (inactive). Also, the GI50 is over 100 µM in the experiment with HCT-15; > 100 µM (inactive) with UACC-257; > 100 µM (inactive) in the experiment with OVCAR-5; > 100 µM (inactive) in the experiment on M19-MEL; > 100 µM (inactive) in the experiment on NCI-H23.

Turning to `Cc1ccc(N2C(=O)/C(=C/c3ccc(N(CCC#N)CCC#N)cc3C)N=C2c2cc([N+](=O)[O-])ccc2Cl)cc1`, the GI50 in the experiment with SK-MEL-2, in the experiment with SF-539, with SNB-19, in the experiment with HT-29, with TK-10 and in the experiment on OVCAR-3 was > 100 µM (inactive) each time. Moreover, the GI50 in the experiment on NCI-H226, in the experiment with IGROV-1, in the experiment with OVCAR-8, with OVCAR-4, in the experiment on HOP-62 and in the experiment on K562 was > 100 µM (inactive) throughout. The GI50 with HCT-15 was over 100 µM; in the experiment on UACC-257, > 100 µM (inactive); in the experiment with OVCAR-5, > 100 µM (inactive); with M19-MEL it was > 100 µM (inactive); with NCI-H23, > 100 µM (inactive).

Turning to `Brc1ccc(-c2cc3c(cc2C2SCCS2)OCO3)cc1`, the GI50 in the experiment with SK-MEL-2 was 28.8 µM (inactive); in the experiment on SF-539, 11.5 µM (inactive); in the experiment with SNB-19, 55.5 µM (inactive); with HT-29, 33.3 µM (inactive); with TK-10 it was 31.5 µM (inactive); with OVCAR-3, 16.6 µM (inactive). Moreover, the GI50 in the experiment with NCI-H226 was 8.17 µM (inactive); with IGROV-1, 37.2 µM (inactive); in the experiment on OVCAR-8, 50.1 µM (inactive); in the experiment on OVCAR-4, 21.6 µM (inactive); in the experiment with HOP-62 it was 31.4 µM (inactive); in the experiment on K562 it was 15.2 µM (inactive). For the same compound, the GI50 was 29.7 µM with HCT-15; 30 µM (inactive) with UACC-257; 16.6 µM (inactive) in the experiment with OVCAR-5; 41.7 µM (inactive) in the experiment with M19-MEL; 39.2 µM (inactive) with NCI-H23.

As to `CC(C)(C)C1=CC(CCC(=O)Nc2ccccc2[N+](=O)[O-])=NC(S)N1` (configuration not stated), the GI50 in the experiment with SK-MEL-2, in the experiment with SF-539, in the experiment on SNB-19, with HT-29, in the experiment with TK-10 and in the experiment with OVCAR-3 was > 100 µM (inactive) each time. In addition, the GI50 in the experiment on NCI-H226, in the experiment on IGROV-1, in the experiment on OVCAR-8, with OVCAR-4, with HOP-62 and with K562 was > 100 µM (inactive) each time. The GI50 in the experiment with HCT-15 was over 100 µM; in the experiment with UACC-257 it was > 100 µM (inactive); in the experiment with OVCAR-5 it was > 100 µM (inactive); with M19-MEL, > 100 µM (inactive); in the experiment with NCI-H23 it was > 100 µM (inactive).

As to `CN(Cc1cnc2nc(N)nc(N)c2n1)c1ccc(C(=O)N[C@@H](CCC(=O)O)C(=O)O)cc1` [METHOTREXATE], the GI50 with SK-MEL-2 is 102 µM (inactive); in the experiment on MDA-MB-231, 38.7 µM (inactive); with Hs-578T it was 192 µM (inactive); in the experiment on SF-539 it was 0.0375 µM (active); in the experiment on SNB-19 it was 0.59 µM (active); in the experiment on HT-29, 0.0335 µM (active). For the same compound, the GI50 with TK-10 was 37.4 µM (inactive); in the experiment on OVCAR-3, 0.433 µM (active); in the experiment on NCI-H226, 20 µM (inactive); in the experiment with IGROV-1, 0.0908 µM (active); in the experiment with OVCAR-8, 0.0292 µM (active); in the experiment with OVCAR-4, 59.6 µM (inactive). For the same compound, the GI50 was 0.0403 µM (active) in the experiment with HOP-62; 0.0285 µM (active) in the experiment with K562; 0.0865 µM (active) in the experiment on PC-3; 0.0343 µM in the experiment with HCT-15; 0.836 µM (active) in the experiment with UACC-257; 0.916 µM (active) in the experiment on OVCAR-5. In addition, the results for the GI50 in the experiment with M19-MEL and in the experiment on NCI-H23 were 0.424 µM (active) and 0.0408 µM (active), respectively.

On to `NC(=O)N=C(N(Cc1ccccc1)Cc1ccccc1)N(Cc1ccccc1)Cc1ccccc1`, for which the GI50 is > 100 µM (inactive) with SK-MEL-2; 15.3 µM (inactive) with MDA-MB-231; 97.5 µM (inactive) in the experiment on Hs-578T; 28.1 µM (inactive) in the experiment on SF-539; > 43.9 µM (inactive) with SNB-19; 4 µM (inactive) in the experiment on HT-29. The GI50 in the experiment with TK-10 was > 65.3 µM (inactive); in the experiment with OVCAR-3, 5.08 µM (inactive); with NCI-H226, > 100 µM (inactive); in the experiment with IGROV-1, 8.97 µM (inactive); in the experiment on OVCAR-8, 14.4 µM (inactive); in the experiment with OVCAR-4 it was 6.22 µM (inactive). For the same compound, the GI50 in the experiment with HOP-62 is 15.3 µM (inactive); in the experiment with K562, > 100 µM (inactive); in the experiment on PC-3, 4.17 µM (inactive); with HCT-15, over 28.4 µM; with OVCAR-5, > 100 µM (inactive); in the experiment with M19-MEL, > 100 µM (inactive). For the same compound, the GI50 in the experiment on NCI-H23 was 9.42 µM (inactive).

Consider `CC(=O)Nc1ccc(/C=C/C(=O)c2sc(-c3nc(C)c(C(=O)/C=C/c4ccc(NC(C)=O)cc4)s3)nc2C)cc1`, for which the GI50 in the experiment on SK-MEL-2, in the experiment with SF-539, with SNB-19, in the experiment on HT-29, with TK-10 and in the experiment with OVCAR-3 was > 100 µM (inactive) in each case. Also, the GI50 in the experiment with NCI-H226, in the experiment on IGROV-1, in the experiment on OVCAR-8, with OVCAR-4, in the experiment on HOP-62 and in the experiment on K562 was > 100 µM (inactive) throughout. In addition, the GI50 in the experiment on HCT-15 was over 100 µM; in the experiment with UACC-257, > 100 µM (inactive); in the experiment on OVCAR-5, > 100 µM (inactive); with M19-MEL, > 100 µM (inactive); in the experiment on NCI-H23 it was > 100 µM (inactive).

As to `COc1cc(NS(C)(=O)=O)ccc1Nc1c2ccccc2nc2ccccc12` [AMSACRINE], the GI50 in the experiment on SK-MEL-2 is 3.7 µM (inactive); with MDA-MB-231, 2.41 µM (inactive); in the experiment on Hs-578T, 1.79 µM (inactive); with SF-539 it was 0.207 µM (active); in the experiment on SNB-19, 0.296 µM (active); in the experiment with HT-29, 1.77 µM (inactive). Besides, the GI50 is 2.63 µM (inactive) in the experiment with TK-10; 2.67 µM (inactive) in the experiment on OVCAR-3; 0.125 µM (active) in the experiment with NCI-H226; 2.4 µM (inactive) in the experiment with IGROV-1; 0.571 µM (active) in the experiment on OVCAR-8; 4.05 µM (inactive) in the experiment on OVCAR-4. Further, the GI50 with HOP-62 is 0.084 µM (active); in the experiment on K562 it was 0.902 µM (active); with PC-3 it was 0.415 µM (active); in the experiment on HCT-15 it was 0.716 µM; in the experiment on UACC-257 it was 2.95 µM (inactive); in the experiment with OVCAR-5, 1.58 µM (inactive). Besides, the GI50 in the experiment on M19-MEL is 1.89 µM (inactive); in the experiment on NCI-H23, 0.152 µM (active).
